The values that follow come from patent US20150157568A1, “Treatment of Spasticity with Intrathecal Dantrolene” (Allergan, Inc., priority 2013, published 2015).

The assay deals with awake spastic rats. The experiment in a line: Spastic rat model (EMG activity during ankle dorsiflexion after spinal cord ischemia). It is filed as in vivo, Sprague-Dawley rats. How it is done:
FIG. 2 describes the rat spasticity model. (A,B) Electromyogram (EMG) responses (recorded from the gastrocnemius muscle) from an awake, but restrained normal and representative spastic rat when the ankle is rotated at velocity of (40°/3 sec) using a computer-controlled ankle rotational device. The presence of spasticity is identified by the appearance of burst EMG activity (active EMG). (C) To calculate the percent of inhibition of spastic muscle activity by a test agent during ankle dorsiflexion, animals were anaesthetized with isoflurane at the end of the experiment and the magnitude of active EMG during ankle dorsiflexion measured under isoflurane anaesthesia is then used as the maximum possible effect and is defined in each spastic animal. All drug treatment data generated after treatment are then normalized in using the maximum effect seen under isoflurane anaesthesia.
Animal: Male Sprague-Dawley rats (approximately 350 gram body weight) were used in the assay. The rats were housed at room temperature (65-82° F.) and relative humidity within the range between 30 to 70%. The room will be illuminated with fluorescent lighting on a daily 12 hour light/dark cycle. All animals will have free access to dry food. Municipal water will be freely available.
Spasticity development and measurement: Rats were exposed to transient spinal cord ischemia by aortic balloon occlusion for 10-12 minutes. Animals with fully developed spasticity will be selected at 4-8 weeks after ischemic injury and prepared for spasticity measurement. Presence of spasticity will be defined by increased peripheral muscle resistance measured during computer-controlled ankle dorsiflexion and correlative changes in EMG (electromyography) activity measured in gastrocnemius muscle (see FIG. 2).
An increased EMG activity induced by ankle dorsiflexion is a consistent and reliable measure of spasticity. Before administration of dantrolene, baseline EMG measurements were conducted. Animals with identified spasticity were then assigned to the experimental groups to be treated with dantrolene or vehicle through intraperitoneal and intrathecal routes.
Intraperitoneal dosing: Three different doses (5, 15, 50 mg/kg) of dantrolene and vehicle were injected intraperitoneally (6 rats per treatment/dose). After dantrolene administration, correlative changes in EMG were recorded at 15, 30, 60, 90, and 120 minutes following intraperitoneal injection. Changes in baseline EMG activity and ankle-rotation evoked EMG activity were then analyzed and the efficacy of treatment on spasticity calculated.
Intrathecal dosing: Animals with identified spasticity were implanted intrathecally with a fine plastic (e.g., PE-10) catheter for bolus drug delivery. Two to three days after intrathecal catheter implantation, the baseline spasticity response was measured and animals were then injected IT with dantrolene (250 μg, 6 rats) and spasticity response was measured for 2 hrs. In control animals (6 rats) vehicle was injected only.

[1] abbreviates: intraperitoneal (IP), 50 mg/kg, single injection, awake spastic rats.

Consider `FC(F)OC(Cl)C(F)(F)F` (stereo not drawn) [Isoflurane], for which the “effect on spastic activity (positive control, maximal anti-spastic effect)” value (isoflurane anesthesia at the end of the experiment, defined as 0%) is “virtually eliminated all spastic activity”.

`O=C1CN(/N=C/c2ccc(-c3ccc([N+](=O)[O-])cc3)o2)C(O)=N1` [dantrolene]: the “effect of systemic administration on spastic activity” value (intraperitoneal (IP) injection, 5, 15, 50 mg/kg, awake spastic rats) is “reduces spastic activity in the awake spastic rats in a dose dependent manner”. For the same compound, the “spastic activity, % of the pre-treatment level” value (intraperitoneal (IP), 50 mg/kg, single injection, highest dose tested, awake spastic rats) is recorded as “about 30%”. Moreover, under setting [1], the “duration of reduction of spastic activity” value was “at least 2 hours” and the “reduction of spastic activity” value was 70%. In addition, the “anti-spastic effect of intrathecal administration” value (intrathecal (IT), single 250 μg bolus injection, awake spastic rats (n=6), at least as robust as 50 mg/kg systemic) was “potent anti-spastic effect”.
